Assay results: patent publication US20210330611A1, “THERAPY FOR NEUROLOGICAL DISEASES/DISORDERS” (priority 2020, published 2021)
Counter-ions that a name gives are not always drawn. Like-named read-outs stand apart in the source and are kept apart here.

What was measured:
primary rat microglia [1] = test: Cell toxicity (dead cells, size <150 μm2) in LPS assay; settings: for IC50: read-out: Cell Toxicity IC50 (uM) [LPS assay]
[2] = system: fibrin- and LPS-induced microglia activation; test: cells; type: cell-based, rat; settings: for inhibition at 10 µM: Rattus norvegicus
[3] = system: LPS-induced microglia activation; test: Image-based assay of LPS-induced microglia activation (HTS and dose response); type: cell-based, rat; settings: Rattus norvegicus, Microglia; for inhibition at 10 µM: read-out: LPS % inhibition
in vitro [4] = settings: rat
[5] = system: fibrin-induced microglia activation; test: Image-based assay of fibrin-induced microglia activation (HTS and dose response); type: cell-based, rat; settings: for IC50 / inhibition at 10 µM: Rattus norvegicus, Microglia; for inhibition at 10 µM: read-out: Fibrin % inhibition
primary rat microglia [6] = test: Cell toxicity (dead cells, size <150 μm2) in coated fibrin (cFib) assay;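 on Fibrin % cell toxicity: share of dead cells sized under 150 µm2 at 10 µM in fibrin-stimulated microglia HTS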
in vitro [7] = settings: rat, Cell Toxicity IC50 (uM) [cFib assay]
[8] = HTS of 1907 compounds, quadrant by fibrin and LPS inhibition
[9] = Microglia, Table 3, read-out: Cherry-picked Hit (Suppl. Table 7)
[10] = Microglia, HTS hit classification, read-out: Hit
[11] = quadrant by fibrin and LPS inhibition in HTS of 1907 compounds
[12] = 48 h, Table 1, dose response 0.001-20 μM, triplicates, primary rat microglia, 48 h, read-out: LPS IC50
[13] = 48 h, primary microglia HTS, LPS stimulation, increased cell size (>800 μm^2) as marker of activation
[14] = LPS-induced microglia activation, dose response, read-out: LPS IC50 (uM) (Suppl. Table 7)
[15] = Table 3, read-out: LPS IC50 (uM) (Suppl. Table 7)
[16] = dose response, LPS-induced microglia activation, read-out: LPS IC50
[17] = primary HTS, 10 μM, LPS-stimulated primary microglia
[18] = 48 h, Table 1, dose response 0.001-20 μM, triplicates, primary rat microglia, 48 h, read-out: Fibrin IC50
[19] = Table 3, read-out: Fibrin IC50 (uM) (Suppl. Table 7)
[20] = dose response, fibrin-induced microglia activation, read-out: Fibrin IC50
[21] = fibrin-induced microglia activation, dose response, read-out: Fibrin IC50 (uM) (Suppl. Table 7)
[22] = primary HTS, 10 μM, fibrin-stimulated primary microglia
[23] = primary microglia HTS, fibrin stimulation, increased cell size (>800 μm^2) as marker of activation
[24] = primary microglia HTS, LPS stimulation, decreased size (<150 μm^2) as marker of toxicity
[25] = primary microglia HTS, fibrin stimulation, decreased size (<150 μm^2) as marker of toxicity
[26] = hit classification in microglia HTS, read-out: Cherry-picked Hit (Suppl. Table 7)

| SMILES | IC50 (primary rat microglia [1]; LPS assay) [µM] | Quadrant (FIG. 5b) [2, 8] | inhibition at 10 µM [2, 9] [%] | inhibition at 10 µM [2, 10] [%] | Quadrant (FIG. 5b) ([2]; Table 1, screen at 10 μM) | Quadrant (FIG. 5b) ([2]; Table 3, screen at 10 μM) | Quadrant (FIG. 5b) [2, 11] | IC50 [3, 12] [µM] | inhibition at 10 µM [3, 13] [%] | IC50 [3, 14] [µM] | IC50 [3, 16] [µM] | IC50 (in vitro [4]) [µM] | IC50 [5, 18] [µM] | IC50 [5, 20] [µM] | IC50 [5, 21] [µM] | inhibition at 10 µM [5, 23] [%] | IC50 (in vitro [7]; cFib assay) [µM] | LPS % cell toxicity (primary rat microglia [1]; [24]) [%] | Fibrin % cell toxicity (primary rat microglia [6]; [25]) [%] | inhibition at 10 µM [2, 26] [%] | further results |
| --- | --- | --- | --- | --- | --- | --- | --- | --- | --- | --- | --- | --- | --- | --- | --- | --- | --- | --- | --- | --- | --- |
| C[C@H]1C[C@H]2[C@@H]3CCC4=CC(=O)C=C[C@]4(C)[C@@]3(F)[C@@H](O)C[C@]2(C)[C@@]1(O)C(=O)CO [Betamethasone, reference compound] | > 20 | Q2 | > 50 | > 50 | Q2 | Q2 | Q2 | 0.01 | 94 | 0.01 | 0.01 | > 20 | < 0.001 | < 0.001 | < 0.001 | 103 | > 20 | – | – | – | Quadrant (FIG. 5b) ([2]; Table 2, screen at 10 μM): Q2; Quadrant (FIG. 5b) ([2]; primary HTS, 10 μM): Q4; IC50 [3, 15]: 0.01 µM; IC50 ([3]; Table 7, read-out: LPS_IC50): 0.002 µM; inhibition at 10 µM [3, 17]: -9%; IC50 [5, 19]: < 0.001 µM; IC50 ([5]; Table 7, read-out: fib_IC50): 0.002 µM; inhibition at 10 µM [5, 22]: -4%; IC50 (primary rat microglia [6]; Rattus norvegicus, Microglia, read-out: dead_IC50 (uM), Table 7, fibrin or LPS assay not specified): 2.08 µM; IC50 (in vitro [7]; Table 3): > 20 µM |
| NCCc1cc[nH]n1 [Betazole hydrochloride, reference compound] | > 20 | Q3 | > 50 | > 50 | Q3 | Q3 | Q3 | > 20 | 38 | > 20 | > 20 | > 20 | 12 | 12 | 12 | 59 | > 20 | 1 | 1 | – | IC50 [3, 15]: > 20 µM; Fibrin Selectivity [5]: 2; Fibrin Selectivity (LOG10) [5]: 0.22; IC50 [5, 19]: 12 µM; IC50 (in vitro [7]; Table 3): > 20 µM |
| CC(=O)O[C@]1(C(C)=O)CC[C@H]2[C@@H]3C=C(Cl)C4=CC(=O)CC[C@]4(C)[C@H]3CC[C@@]21C [Chlormadinone acetate, reference compound] | – | Q3 | – | > 50 | Q3 | – | Q3 | > 20 | 43 | > 20 | > 20 | > 20 | – | – | – | 72 | > 20 | 0 | 1 | > 50 | – |
| NS(=O)(=O)c1cc(C2(O)NC(=O)c3ccccc32)ccc1Cl (centres unmarked) [Chlorthalidone, reference compound] | – | Q3 | – | > 50 | Q3 | – | Q3 | > 20 | 35 | > 20 | > 20 | > 20 | > 20 | > 20 | > 20 | 77 | > 20 | 1 | 2 | > 50 | – |
| CCC(=O)O[C@]1(C(=O)CCl)[C@@H](C)C[C@H]2[C@@H]3CCC4=CC(=O)C=C[C@]4(C)[C@@]3(F)[C@@H](O)C[C@@]21C [Clobetasol propionate, reference compound] | – | Q2 | – | > 50 | Q2 | – | Q2 | < 0.001 | 105 | < 0.001 | < 0.001 | > 20 | < 0.001 | < 0.001 | < 0.001 | 108 | > 20 | 3 | 3 | > 50 | LPS % cell toxicity (primary rat microglia [1]; primary HTS, 10 μM, LPS assay, dead cells size <150 μm2): 2%; Quadrant (FIG. 5b) ([2]; primary HTS, 10 μM): Q4; inhibition at 10 µM [3, 17]: 30%; inhibition at 10 µM [5, 22]: -22%; Fibrin % cell toxicity (primary rat microglia [6]; primary HTS, 10 μM, fibrin assay, dead cells size <150 μm2): 1% |
| Clc1ccc(C(OCCN2CCCCC2)c2ccccc2)cc1 (centres unmarked) [Cloperastine hydrochloride, reference compound] | – | Q3 | – | > 50 | Q3 | – | Q3 | 9 | 44 | 9 | 9 | > 20 | 7 | 7 | 7 | 64 | > 20 | 0 | 2 | > 50 | – |
| CC(=O)OCC(=O)[C@@]12N=C(C)O[C@@H]1C[C@H]1[C@@H]3CCC4=CC(=O)C=C[C@]4(C)[C@H]3[C@@H](O)C[C@@]12C [Deflazacort, reference compound] | > 20 | Q2 | > 50 | > 50 | Q2 | Q2 | Q2 | 0.04 | 105 | 0.04 | 0.04 | > 20 | < 0.001 | < 0.001 | < 0.001 | 111 | 20 | 4 | 2 | – | IC50 (primary rat microglia [1]; LPS assay, Table 6): > 20 µM; Quadrant (FIG. 5b) ([2]; microglia HTS, Table 6): Q2; IC50 [3, 15]: 0.04 µM; IC50 ([3]; Table 6, read-out: LPS IC50 (uM) (Suppl. Table 7)): 0.04 µM; Fibrin Selectivity [5]: 42; Fibrin Selectivity (LOG10) [5]: 1.63; IC50 [5, 19]: < 0.001 µM; IC50 ([5]; Table 6, read-out: Fibrin IC50 (uM) (Suppl. Table 7)): < 0.001 µM; Fibrin Selectivity (LOG10) ([5]; fibrin vs LPS, LOG10, Table 6): 1.63; Fibrin Selectivity ([5]; fibrin vs LPS, Table 6): 42; IC50 (in vitro [7]; Table 3): 20 µM; IC50 (in vitro [7]; cFib assay, Table 6): ≥ 20 µM |
